For series [1] the following is noted: 0.1 N HCl aqueous solution (pH around 1); cited from earlier work.
A short description of series [2]: Precipitation after preparation of liquid lenalidomide compositions. It counts as physicochemical. The conditions noted are these: a few minutes after lenalidomide was dissolved in an aqueous buffer at pH between 1.0 and 3.5. As to the method:
A composition was prepared according to example 23 of WO 1998/03502. The solution contained 5.0 g lenalidomide, 22.5 g sodium chloride, 300.0 g phosphate buffer with pH 7.4 and demineralized water. The pH of the final composition was 7.4.
Similar results (i.e. precipitation) were obtained a few minutes after lenalidomide was dissolved in an aqueous buffer at pH between 1.0 and 3.5.
Thus, the composition of Trial 0 was not subjected to the stability study.
The composition of trial 4 was not subjected to the stability study.

In brackets after ≈: the same amount, converted by molar mass.

The term solubility denotes how much of the substance goes into solution per volume. With `Nc1cccc2c1CN(C1CCC(=O)NC1=O)C2=O` (racemic) [Lenalidomide, 1-oxo-(2,6-dioxopiperidin-3-yl)-4-aminoisoindoline], the solubility in series [1] is 18.0 mg/mL (≈ 69.4 mM). Besides, the precipitation after dissolution result in series [2] was “precipitation”.

Source of the values: patent US20250073220A1, “ORAL SOLUTION COMPRISING LENALIDOMIDE” (A FINE HOUSE S.A., priority 2021, published 2025).
